Key:
Assay in all cases: Kinase inhibitor library screening, PrestoBlue cell viability, 1 or 10 μM, 72 h
501Mel cells (parental) = conditions: 501Mel Parental, in %
How it was run: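 Kinase inhibitors added at two fixed concentrations; 72 h exposure; PrestoBlue readout; % viability vs untreated; n ≥ 2 per line.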

[1] = tested on: 501Mel-GP cells (Dabrafenib-resistant); conditions: 501Mel GP, in %
[2] = tested on: 501Mel-XP cells (Vemurafenib-resistant); conditions: 501Mel XP, in %
A375 cells (parental) = conditions: A375 Parental
[3] = tested on: A375-GP cells (Dabrafenib-resistant); conditions: A375 GP
[4] = tested on: A375-XP cells (Vemurafenib-resistant); conditions: A375 XP
IGR37 cells (parental) = conditions: IGR37 Parental, in %
[5] = tested on: IGR37-GP cells (Dabrafenib-resistant); conditions: IGR37 GP
[6] = tested on: IGR37-XP cells (Vemurafenib-resistant); conditions: IGR37 XP

In the case of COc1cc2c(N3CCN(C(=O)Nc4ccc(OC(C)C)cc4)CC3)ncnc2cc1OCCCN1CCCCC1 [Tandutinib (MLN518)], the “cell viability, 501Mel Parental, 10μΜ” value (501Mel cells (parental); 10μΜ, 72 h) was 95.2, the “cell viability, 501Mel GP, 1μΜ” value ([1]; 1μΜ, 72 h) was 103.5 and the “cell viability, 501Mel GP, 10μΜ” value ([1]; 10μΜ, 72 h) was 85.5. The “cell viability, 501Mel XP, 1μΜ” value ([2]; 1μΜ, 72 h) was 94.1, the “cell viability, 501Mel XP, 10μΜ” value ([2]; 10μΜ, 72 h) was 71.2 and the “cell viability, A375 Parental, 1μΜ” value (A375 cells (parental); 1μΜ, 72 h, in %) was 106.1. For the same molecule, the “cell viability, A375 Parental, 10μΜ” value (A375 cells (parental); 10μΜ, 72 h, in %) was 89.7, the “cell viability, A375 GP, 10μΜ” value ([3]; 10μΜ, 72 h, in %) was 83.5 and the “cell viability, A375 XP, 1μΜ” value ([4]; 1μΜ, 72 h, in %) was 107.0. The “cell viability, IGR37 Parental, 1μΜ” value (IGR37 cells (parental); 1μΜ, 72 h) was 100.2, the “cell viability, IGR37 Parental, 10μΜ” value (IGR37 cells (parental); 10μΜ, 72 h) was 98.5 and the cell viability, IGR37 GP, 10μΜ ([5]; 10μΜ, 72 h) was 91.4%. The “cell viability, IGR37 GP, 1μΜ” value ([5]; 1μΜ, 72 h, in %) was 95.6, the cell viability, IGR37 XP, 10μΜ ([6]; 10μΜ, 72 h) was 43.4% and the “cell viability, IGR37 XP, 1μΜ” value ([6]; 1μΜ, 72 h, in %) was 103.1.
With CNC(=O)c1cc(COc2nnc(Nc3ccc(Cl)cc3)c3ccoc23)ccn1 [Telatinib (BAY 57-9352)] the “cell viability (kinase inhibitor library screening)” value (501Mel cells (parental); 1μΜ) was 96.8, the “cell viability (kinase inhibitor library screening)” value (501Mel cells (parental); 10μΜ) was 90.0 and the “cell viability (kinase inhibitor library screening)” value ([1]; 1μΜ) was 99.0. The “cell viability (kinase inhibitor library screening)” value ([1]; 10μΜ) was 76.1, the “cell viability (kinase inhibitor library screening)” value ([2]; 10μΜ) was 68.9 and the “cell viability (kinase inhibitor library screening)” value (A375 cells (parental); 1μΜ, in %) was 99.4. The “cell viability (kinase inhibitor library screening)” value (A375 cells (parental); 10μΜ, in %) was 95.9, the “cell viability (kinase inhibitor library screening)” value ([3]; 1μΜ, in %) was 98.3 and the “cell viability (kinase inhibitor library screening)” value ([3]; 10μΜ, in %) was 92.0. The “cell viability (kinase inhibitor library screening)” value ([4]; 1μΜ, in %) was 96.6, the “cell viability (kinase inhibitor library screening)” value ([4]; 10μΜ, in %) was 95.7 and the “cell viability (kinase inhibitor library screening)” value (IGR37 cells (parental); 1μΜ) was 99.2. The “cell viability (kinase inhibitor library screening)” value (IGR37 cells (parental); 10μΜ) was 97.3, the “cell viability (kinase inhibitor library screening)” value ([5]; 1μΜ, in %) was 94.5 and the “cell viability (kinase inhibitor library screening)” value ([5]; 10μΜ, in %) was 88.0. For the same molecule, the “cell viability (kinase inhibitor library screening)” value ([6]; 1μΜ, in %) was 98.1 and the “cell viability (kinase inhibitor library screening)” value ([6]; 10μΜ, in %) was 70.8.
For CO[C@H]1C[C@@H]2CC[C@@H](C)[C@@](O)(O2)C(=O)C(=O)N2CCCC[C@H]2C(=O)O[C@H]([C@H](C)C[C@@H]2CC[C@@H](OC(=O)C(C)(CO)CO)[C@H](OC)C2)CC(=O)[C@H](C)/C=C(\C)[C@@H](O)[C@@H](OC)C(=O)[C@H](C)C[C@H](C)/C=C/C=C/C=C/1C [Temsirolimus (Torisel)], the “Cell viability in kinase inhibitor library screening, 501Mel Parental, 1μΜ” value (501Mel cells (parental); 1μΜ, 72 h) was 83.5, the “Cell viability in kinase inhibitor library screening, 501Mel Parental, 10μΜ” value (501Mel cells (parental); 10μΜ, 72 h) was 79.5 and the “Cell viability in kinase inhibitor library screening, 501Mel GP, 1μΜ” value ([1]; 1μΜ, 72 h) was 69.5. For the same molecule, the “Cell viability in kinase inhibitor library screening, 501Mel GP, 10μΜ” value ([1]; 10μΜ, 72 h) was 60.0, the “Cell viability in kinase inhibitor library screening, 501Mel XP, 1μΜ” value ([2]; 1μΜ, 72 h) was 55.1 and the “Cell viability in kinase inhibitor library screening, 501Mel XP, 10μΜ” value ([2]; 10μΜ, 72 h) was 41.2. The “Cell viability in kinase inhibitor library screening, A375 Parental, 10μΜ” value (A375 cells (parental); 10μΜ, 72 h) was 73.5, the “Cell viability in kinase inhibitor library screening, A375 Parental, 1μΜ” value (A375 cells (parental); 1μΜ, 72 h) was 78.4 and the “Cell viability in kinase inhibitor library screening, A375 GP, 1μΜ” value ([3]; 1μΜ, 72 h) was 81.2. For the same molecule, the “Cell viability in kinase inhibitor library screening, A375 GP, 10μΜ” value ([3]; 10μΜ, 72 h) was 73.7, the “Cell viability in kinase inhibitor library screening, A375 XP, 1μΜ” value ([4]; 1μΜ, 72 h) was 81.1 and the “Cell viability in kinase inhibitor library screening, A375 XP, 10μΜ” value ([4]; 10μΜ, 72 h) was 78.8. The “Cell viability in kinase inhibitor library screening, IGR37 Parental, 1μΜ” value (IGR37 cells (parental); 1μΜ, 72 h) was 79.0, the “Cell viability in kinase inhibitor library screening, IGR37 Parental, 10μΜ” value (IGR37 cells (parental); 10μΜ, 72 h) was 82.7 and the Cell viability in kinase inhibitor library screening, IGR37 GP, 10μΜ ([5]; 10μΜ, 72 h) was 41.7%. The “Cell viability in kinase inhibitor library screening, IGR37 GP, 1μΜ” value ([5]; 1μΜ, 72 h, in %) was 91.9, the Cell viability in kinase inhibitor library screening, IGR37 XP, 10μΜ ([6]; 10μΜ, 72 h) was 5.5% and the “Cell viability in kinase inhibitor library screening, IGR37 XP, 1μΜ” value ([6]; 1μΜ, 72 h, in %) was 96.0.
In the case of O=C(NCc1ccccc1)c1csc(Nc2ccncn2)n1 [Thiazovivin], the “cell viability (kinase inhibitor library screening)” value (501Mel cells (parental); 1μΜ) was 107.2, the “cell viability (kinase inhibitor library screening)” value (501Mel cells (parental); 10μΜ) was 76.8 and the “cell viability (kinase inhibitor library screening)” value ([1]; 1μΜ) was 104.3. The “cell viability (kinase inhibitor library screening)” value ([1]; 10μΜ) was 43.8, the “cell viability (kinase inhibitor library screening)” value ([2]; 10μΜ) was 28.9 and the “cell viability (kinase inhibitor library screening)” value (A375 cells (parental); 1μΜ, in %) was 103.7. The “cell viability (kinase inhibitor library screening)” value (A375 cells (parental); 10μΜ, in %) was 81.8, the “cell viability (kinase inhibitor library screening)” value ([3]; 1μΜ, in %) was 96.7 and the “cell viability (kinase inhibitor library screening)” value ([3]; 10μΜ, in %) was 87.9. For the same molecule, the “cell viability (kinase inhibitor library screening)” value ([4]; 10μΜ, in %) was 107.7, the “cell viability (kinase inhibitor library screening)” value (IGR37 cells (parental); 1μΜ) was 97.5 and the “cell viability (kinase inhibitor library screening)” value (IGR37 cells (parental); 10μΜ) was 89.5. The “cell viability (kinase inhibitor library screening)” value ([5]; 1μΜ, in %) was 92.4, the “cell viability (kinase inhibitor library screening)” value ([5]; 10μΜ, in %) was 93.5 and the “cell viability (kinase inhibitor library screening)” value ([6]; 1μΜ, in %) was 98.5. The “cell viability (kinase inhibitor library screening)” value ([6]; 10μΜ, in %) was 87.0.

Source: paper PMC6364417, “Kinase inhibitor library screening identifies synergistic drug combinations effective in sensitive and resistant melanoma cells” (Journal of Experimental & Clinical Cancer Research : CR, 2019)
